Results published in ChEMBL document CHEMBL5370541, “Targeting VPS34 in autophagy: An update on pharmacological small-molecule compounds” (Eur J Med Chem, 2023).
pIC50, pKd: −log10 of the molar value.

Assays:
MCF7 [1] = experiment: Inhibition of starvation-induced autophagy in human MCF7 cells expressing eGFP-tagged LC3; type: functional, cell-based
MCF7 [2] = experiment: Inhibition of rapamycin-induced autophagy in human MCF7 cells expressing eGFP-tagged LC3; type: functional, cell-based
[3] = biological target: T1, Phosphatidylinositol 3-kinase catalytic subunit type 3 (Homo sapiens, UniProt Q8NEB9); experiment: Inhibition of VPS34 (unknown origin) by ADP hunter plus assay
[4] = biological target: T1, Phosphatidylinositol 3-kinase catalytic subunit type 3; experiment: Binding affinity to VPS34 (unknown origin) assessed as dissociation constant by KINOMEscan analysis

T1 sequence (Q8NEB9 whole entry): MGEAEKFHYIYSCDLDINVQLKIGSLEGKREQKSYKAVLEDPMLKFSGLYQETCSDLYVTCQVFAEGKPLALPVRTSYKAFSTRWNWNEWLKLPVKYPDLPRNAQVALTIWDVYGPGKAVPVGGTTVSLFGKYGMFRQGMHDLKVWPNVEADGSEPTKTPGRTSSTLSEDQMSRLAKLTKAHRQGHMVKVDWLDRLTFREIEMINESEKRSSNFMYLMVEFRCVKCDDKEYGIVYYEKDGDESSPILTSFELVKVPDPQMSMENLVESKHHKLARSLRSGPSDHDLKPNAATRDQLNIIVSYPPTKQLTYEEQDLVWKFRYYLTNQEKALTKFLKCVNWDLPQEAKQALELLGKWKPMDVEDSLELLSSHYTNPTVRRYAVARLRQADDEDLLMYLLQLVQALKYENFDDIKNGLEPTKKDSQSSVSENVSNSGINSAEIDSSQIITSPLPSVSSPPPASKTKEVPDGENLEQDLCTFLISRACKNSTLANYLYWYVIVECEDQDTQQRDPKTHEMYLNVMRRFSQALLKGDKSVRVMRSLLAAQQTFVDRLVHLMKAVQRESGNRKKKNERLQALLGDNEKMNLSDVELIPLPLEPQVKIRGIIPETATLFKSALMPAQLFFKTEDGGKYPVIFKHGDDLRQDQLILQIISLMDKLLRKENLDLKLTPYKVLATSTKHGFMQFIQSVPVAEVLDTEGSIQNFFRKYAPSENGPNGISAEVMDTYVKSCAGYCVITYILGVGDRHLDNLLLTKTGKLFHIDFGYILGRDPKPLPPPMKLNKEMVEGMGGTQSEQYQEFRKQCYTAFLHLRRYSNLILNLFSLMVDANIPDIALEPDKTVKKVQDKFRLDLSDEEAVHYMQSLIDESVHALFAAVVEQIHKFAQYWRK

pIC50 [3]	SMILES	pIC50 (MCF7 [1])	also measured
	COc1ccc2nccc([C@@H](O)[C@@H]3C[C@@H]4CCN3c3c4[nH]c4nc(C)c(Br)cc34)c2c1	7.40	pIC50 (MCF7 [2]): 8.10
	COc1ccc2nccc([C@@H](O)[C@@H]3C[C@@H]4CCN3c3c4[nH]c4nc(Cl)ccc34)c2c1	5.09	
5.82	O=S(=O)(c1ccc(-c2ccnc3[nH]ccc23)cc1)C1CCCC1		
6.82	O=C1Nc2ccc(-c3cccnc3)cc2C1=Cc1cc(Br)c(O)c(Br)c1		
	COc1ccc2nccc([C@@H](O)[C@@H]3C[C@@H]4CCN3c3c4[nH]c4nc(C(F)(F)F)ccc34)c2c1	5.24	
	C[C@@H]1COCCN1c1cc(N2CCCC[C@@H]2C(F)(F)F)[nH]c(=O)c1		pKd [4]: 9.00
8.04	O=c1cc(N2CCOCC2)nc2n(Cc3cccc(Cl)c3Cl)c(C3CC3)nn12		
